From ChEMBL document CHEMBL1201862, “PubChem BioAssay data set” (2004) come the findings set out here.

The test system of one assay is H9c2. The assay is described as follows: cells. The conditions noted are these: Rattus norvegicus, H9c2, Myocardium. It counts as functional, cell-based.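 Note: confirmatory concentration-response retest of ultra-high-throughput screening hits for modulation of myocardial damage; cell death induced by hydrogen peroxide oxidative stress; compound pretreatment for 60 min then peroxide exposure for 2 h; potency is for protecting the cells against peroxide damage rather than for killing them.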
The next assay is described as follows: cells. The class given is functional.
In a further assay the target is Cytochrome P450 2D6 (Homo sapiens, UniProt P10635).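 Note: CYP2D6 member of a cytochrome P450 panel assay.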
The target of a further assay is Cytochrome P450 2C9 (Homo sapiens, UniProt P11712).
Assay [1] addresses T1, Ubiquitin-conjugating enzyme E2 N (Homo sapiens, UniProt P61088).
T1 sequence (P61088 whole entry): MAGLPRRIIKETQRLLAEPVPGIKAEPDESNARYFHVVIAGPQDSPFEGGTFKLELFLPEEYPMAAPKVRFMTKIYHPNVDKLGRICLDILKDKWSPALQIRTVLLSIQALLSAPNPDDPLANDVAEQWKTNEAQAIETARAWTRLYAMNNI
The class given is functional.

A short description of assay [2]: P. falciparum Dd2 growth inhibitors, dose response, SYBR Green, cherry-picked samples (AID 1159567). It counts as functional, cell-based.
In assay [3] the target is Luciferin 4-monooxygenase (Photinus pyralis, UniProt P08659). The assay is described as follows: inhibition of purified Photinus pyralis luciferase – biochemical, luminescence, dose response (AID 1891).
Assay [4] can be described thus: Luminescence Cell-Based Dose Confirmation HTS to Identify Inhibitors of Platelet Dense Granule Release. [Related pubchem assays: 1663 (Primary HTS), 1678 (Summary of Project)]. The class given is functional.
Another assay concerns the target T2, Cytochrome P450 1A2 (Homo sapiens, UniProt P05177).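 Note: PubChem cytochrome P450 panel assay, CYP1A2 panel member.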
T2 sequence (P05177 whole entry): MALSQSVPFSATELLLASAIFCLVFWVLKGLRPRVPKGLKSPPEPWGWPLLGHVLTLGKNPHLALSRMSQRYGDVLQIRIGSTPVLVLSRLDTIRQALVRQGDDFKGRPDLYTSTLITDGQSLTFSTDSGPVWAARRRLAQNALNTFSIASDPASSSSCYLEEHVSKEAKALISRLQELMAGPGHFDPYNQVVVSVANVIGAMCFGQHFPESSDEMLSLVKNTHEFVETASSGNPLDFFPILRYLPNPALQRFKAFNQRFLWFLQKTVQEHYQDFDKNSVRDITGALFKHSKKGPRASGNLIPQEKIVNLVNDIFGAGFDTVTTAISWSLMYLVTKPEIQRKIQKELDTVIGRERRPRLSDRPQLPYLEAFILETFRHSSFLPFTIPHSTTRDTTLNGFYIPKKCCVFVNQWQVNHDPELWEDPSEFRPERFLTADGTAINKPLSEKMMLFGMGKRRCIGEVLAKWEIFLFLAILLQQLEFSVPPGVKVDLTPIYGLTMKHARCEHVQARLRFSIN

The nature of assay [5]: microbe, parasite or virus in culture. The class given is functional. The conditions noted are these: Mycobacterium tuberculosis.
Assay [6] concerns the target T3, Calpain-2 catalytic subunit (Sus scrofa, UniProt P43367).
T3 sequence (P43367 whole entry): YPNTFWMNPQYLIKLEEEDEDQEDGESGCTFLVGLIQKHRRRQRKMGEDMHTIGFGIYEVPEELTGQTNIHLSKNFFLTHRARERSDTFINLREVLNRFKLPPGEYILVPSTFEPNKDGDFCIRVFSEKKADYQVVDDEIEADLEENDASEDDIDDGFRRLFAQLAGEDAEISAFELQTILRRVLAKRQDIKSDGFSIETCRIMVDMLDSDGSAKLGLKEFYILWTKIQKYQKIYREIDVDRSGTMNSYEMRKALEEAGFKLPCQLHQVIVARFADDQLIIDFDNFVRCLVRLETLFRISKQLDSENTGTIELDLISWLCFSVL
The assay is described as follows: m-calpain protease blockers, concentration series – biochemical, fluorogenic peptide substrate, dose response (AID 1420). The class given is functional.

For a further assay, the target named is Nonstructural protein 1 (Influenza A virus, UniProt Q194T2). It counts as functional, Influenza A virus (A/California/07/2009(H1N1)).
The next assay addresses Cytochrome P450 3A4 (Homo sapiens, UniProt P08684).
In a further assay the target is Cytochrome P450 2C19 (Homo sapiens, UniProt P33261). In words: Cytochrome panel assay with activity outcomes. Panel member name: p450-cyp2c19 Compounds with AC50 equal or less than 10 uM are considered active. The class given is functional. The conditions noted are these: read-out: AC50.
Another assay deals with Vero. The assay is described as follows: cells. As to conditions: Chlorocebus sabaeus. The class given is functional.

Calls of active or inactive are those of the source. Some results are limits rather than exact numbers.

Cytochrome P450 2D6, sequence (P10635 whole entry): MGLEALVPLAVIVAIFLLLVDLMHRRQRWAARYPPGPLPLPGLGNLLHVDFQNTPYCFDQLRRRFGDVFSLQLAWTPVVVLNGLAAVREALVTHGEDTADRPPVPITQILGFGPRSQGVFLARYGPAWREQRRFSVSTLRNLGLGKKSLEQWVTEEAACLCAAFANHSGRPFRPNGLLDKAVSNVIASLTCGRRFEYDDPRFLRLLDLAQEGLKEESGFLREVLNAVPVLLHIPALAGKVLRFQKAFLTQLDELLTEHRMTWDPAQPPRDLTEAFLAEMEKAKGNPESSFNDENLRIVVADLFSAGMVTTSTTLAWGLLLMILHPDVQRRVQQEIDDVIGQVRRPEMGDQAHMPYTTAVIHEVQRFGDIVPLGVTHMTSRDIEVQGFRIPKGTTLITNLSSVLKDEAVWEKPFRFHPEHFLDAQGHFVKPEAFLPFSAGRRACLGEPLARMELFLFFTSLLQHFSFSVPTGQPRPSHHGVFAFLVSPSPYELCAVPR
Cytochrome P450 2C9, sequence (P11712 whole entry): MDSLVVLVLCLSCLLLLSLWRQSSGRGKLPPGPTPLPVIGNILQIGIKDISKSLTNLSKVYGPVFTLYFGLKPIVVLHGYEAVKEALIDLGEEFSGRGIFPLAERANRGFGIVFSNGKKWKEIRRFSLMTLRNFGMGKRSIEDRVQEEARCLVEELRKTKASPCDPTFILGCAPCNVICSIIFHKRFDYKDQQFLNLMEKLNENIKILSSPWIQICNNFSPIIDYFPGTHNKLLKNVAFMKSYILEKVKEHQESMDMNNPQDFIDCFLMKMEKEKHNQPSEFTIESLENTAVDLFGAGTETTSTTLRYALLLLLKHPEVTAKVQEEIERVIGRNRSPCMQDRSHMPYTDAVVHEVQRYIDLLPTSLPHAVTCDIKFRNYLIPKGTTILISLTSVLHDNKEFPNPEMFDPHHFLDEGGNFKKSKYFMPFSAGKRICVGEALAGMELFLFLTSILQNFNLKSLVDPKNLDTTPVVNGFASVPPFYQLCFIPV
Luciferin 4-monooxygenase, sequence (P08659 whole entry): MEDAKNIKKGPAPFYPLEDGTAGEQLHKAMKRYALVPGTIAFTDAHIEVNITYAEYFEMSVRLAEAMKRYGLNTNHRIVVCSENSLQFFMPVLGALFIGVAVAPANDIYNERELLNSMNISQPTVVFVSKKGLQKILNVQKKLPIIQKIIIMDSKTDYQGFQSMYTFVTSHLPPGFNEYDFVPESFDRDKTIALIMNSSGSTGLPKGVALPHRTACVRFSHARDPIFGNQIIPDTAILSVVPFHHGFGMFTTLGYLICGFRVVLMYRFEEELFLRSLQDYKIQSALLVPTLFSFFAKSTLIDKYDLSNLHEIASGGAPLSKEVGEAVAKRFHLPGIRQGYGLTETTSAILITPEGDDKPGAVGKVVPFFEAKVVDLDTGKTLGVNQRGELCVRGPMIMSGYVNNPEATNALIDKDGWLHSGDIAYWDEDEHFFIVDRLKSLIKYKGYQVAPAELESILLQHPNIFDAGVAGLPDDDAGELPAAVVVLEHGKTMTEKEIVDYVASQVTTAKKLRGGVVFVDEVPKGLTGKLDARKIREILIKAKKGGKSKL
Cytochrome P450 2C19, sequence (P33261 whole entry): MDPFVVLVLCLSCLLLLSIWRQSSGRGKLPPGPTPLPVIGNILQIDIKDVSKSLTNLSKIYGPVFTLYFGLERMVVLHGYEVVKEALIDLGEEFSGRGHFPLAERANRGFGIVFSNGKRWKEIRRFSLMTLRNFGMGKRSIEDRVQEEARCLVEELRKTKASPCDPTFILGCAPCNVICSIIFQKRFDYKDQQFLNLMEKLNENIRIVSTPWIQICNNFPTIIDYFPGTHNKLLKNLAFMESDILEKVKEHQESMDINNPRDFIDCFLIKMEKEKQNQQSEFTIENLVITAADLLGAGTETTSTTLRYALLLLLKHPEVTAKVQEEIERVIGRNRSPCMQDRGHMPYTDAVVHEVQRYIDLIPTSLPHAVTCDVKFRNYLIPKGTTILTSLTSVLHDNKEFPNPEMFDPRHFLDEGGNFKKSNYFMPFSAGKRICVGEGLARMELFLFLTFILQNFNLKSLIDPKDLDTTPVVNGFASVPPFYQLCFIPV
Nonstructural protein 1, sequence (Q194T2 whole entry): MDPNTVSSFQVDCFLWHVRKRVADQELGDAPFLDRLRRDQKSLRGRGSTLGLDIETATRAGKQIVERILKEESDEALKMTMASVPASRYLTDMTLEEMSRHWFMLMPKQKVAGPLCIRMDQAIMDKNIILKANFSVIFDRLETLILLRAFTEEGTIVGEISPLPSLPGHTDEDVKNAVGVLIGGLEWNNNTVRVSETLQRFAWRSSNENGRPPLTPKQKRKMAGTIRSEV
Cytochrome P450 3A4, sequence (P08684 whole entry): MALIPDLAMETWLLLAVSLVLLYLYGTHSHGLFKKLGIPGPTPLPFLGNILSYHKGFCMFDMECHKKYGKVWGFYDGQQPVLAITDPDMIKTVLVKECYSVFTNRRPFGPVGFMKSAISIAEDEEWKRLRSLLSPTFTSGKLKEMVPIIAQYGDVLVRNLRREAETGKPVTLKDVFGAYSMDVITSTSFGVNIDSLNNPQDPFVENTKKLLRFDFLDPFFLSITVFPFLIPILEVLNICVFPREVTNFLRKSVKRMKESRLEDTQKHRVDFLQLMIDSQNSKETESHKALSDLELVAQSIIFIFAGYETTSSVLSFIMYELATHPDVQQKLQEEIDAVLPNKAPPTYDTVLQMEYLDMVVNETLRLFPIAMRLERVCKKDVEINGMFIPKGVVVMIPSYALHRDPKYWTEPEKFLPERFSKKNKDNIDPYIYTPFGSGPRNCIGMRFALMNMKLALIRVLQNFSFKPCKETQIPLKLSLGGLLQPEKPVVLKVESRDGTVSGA

Regarding `Oc1ccc(Cl)cc1/C=N/c1ccc(Br)cc1`, the IC50 in the assay on H9c2 was 22.3 µM (active).
In the case of `Cc1cc(C(=O)N/N=C/c2ccc(OC(=O)c3ccccc3Br)cc2)[nH]n1`, the IC50 in the assay “cells” was 41.6 µM (active).
As to `COc1ccc(C/N=C(\C#N)C2=C(O)c3ccccc3C2=O)cc1`, the IC50 in “cells” was 45.7 µM (active).
Regarding `CN(Cc1cc(C(C)(C)C)cc(Br)c1O)Cc1cc(C(C)(C)C)cc(Br)c1O`, the AC50 on Cytochrome P450 2D6 was 2.51 µM (inconclusive); at Cytochrome P450 2C9, 3.98 µM (inconclusive).
With `COC(=O)C1=C(C)N(Cc2ccccc2)C(NCc2cc(OC)c(OC)c(OC)c2)=N[C@H]1CCc1ccccc1`, the IC50 in [1] was > 20 µM (inactive).
Turning to `O=C(Nc1ccccc1F)N1CC(=O)N2[C@H](CO)[C@@H](c3ccc(-c4ccccc4)cc3)[C@H]2C1`, the AC50 in assay [2] was 14.5 µM (active).
Take `COc1cc(O)ccc1C=O`: the EC50 in assay [3] and in [4] was > 112 µM (not active) each time.
In the case of `CC(=O)NC(c1cc(Cl)c2ccccc2c1O)C(C)C` (stereo unspecified), the IC50 in assay [1] is > 20 µM (inactive).
As for `COc1ccc(CNC(=O)N[C@@H](CC(C)C)C(=O)O)cc1OC`, the EC50 in assay [3] and in assay [4] was > 112 µM (not active) throughout.
For `C=CCn1c(S)nnc1C(C)NC(=O)c1ccccc1` (stereo unspecified), the AC50 at Cytochrome P450 2C9 was 17.8 µM (inconclusive).
On to `CCOC(=O)CNC(=O)CSc1nc2cc(Br)c(C)nc2[nH]1`, for which the IC50 with H9c2 was 24 µM (active).
For `Cc1ccc(/C=N/NC(=O)CSc2nc3nc(C)cc(C)n3n2)cc1`, the AC50 was 4.47 µM (inconclusive) at Cytochrome P450 1A2 and 22.4 µM (inconclusive) on Cytochrome P450 2C9.
Take `c1ccc2c(C3=NN=C(NC4CCCCC4)SC3)c[nH]c2c1`: the CC50 in [5] was > 40 µM (active). Also, the IC50 in [6] is 6.76 µM (not active).
On to `COc1ccc(NC(=O)C2CCCN(c3nn4c(=O)cc(C)nc4s3)C2)c(OC)c1` (stereo unspecified), for which the EC50 in assay [3] and in assay [4] was > 112 µM (not active) each time.
In the case of `C#CCOCCOCCOCCNc1nc(N2CCN(C(=O)[C@H]([C@@H](C)CC)n3cc([C@@H](N)CC(C)C)nn3)CC2)nc(N2CCN(C(=O)[C@H](Cc3ccc(O)cc3)n3cc([C@@H](N)C(C)CC)nn3)CC2)n1` (stereo partly specified), the IC50 in assay [1] was > 20 µM (inactive).
For the compound `CCCCOc1ccc(-c2nnn(C(C)C(=O)OCC)n2)cc1` (stereo unspecified), the IC50 in “cells” was 2.83 µM (active).
Turning to `CN(C)c1ccc(N=Nc2ccccc2C(=O)OCC(=O)N(C)c2ccccc2)cc1`, on Nonstructural protein 1, the 50% inhibitory concentration (IC50) is 21.2 µM (active).
On to `CCCCNC(=S)NC(=O)c1ccc(Cl)cc1Cl`, for which the IC50 in assay [6] is 4.25 µM (not active).
Turning to `COc1cc(C#Cc2c(-c3cncn3C)n(C)c3ccc(Br)cc23)cc(OC)c1`, the IC50 in assay [1] was > 20 µM (inactive).
Take `O=C(N/N=C/c1ccccn1)c1ccc(NC(=O)c2ccc(F)cc2)cc1`: the EC50 in assay [3] and in assay [4] was > 112 µM (not active) in each case.
As to `CC(=O)Nc1ccc(OCC(O)Cn2cnc3ccccc32)cc1` (stereo unspecified), the AC50 was 0.00562 µM (inconclusive) on Cytochrome P450 2D6 and 0.0631 µM (inconclusive) on Cytochrome P450 2C9.
As to `CCCC[C@@H]1CN=C(N)N1CCc1cc(C(F)(F)F)cc(C(F)(F)F)c1`, the IC50 in [1] is > 20 µM (inactive).
For the compound `O=C(CC1Oc2ccccc2NC1=O)NC1CCCC1` (stereo unspecified), the EC50 in [3] and in [4] was > 112 µM (not active) throughout.
On to `CCCCNc1c([N+](=O)[O-])cc(C)cc1[N+](=O)[O-]`, for which, at Nonstructural protein 1, the IC50 is 27.1 µM (active).
In the case of `C[C@@H]1CC[C@H]2C(=O)O[C@H](CN=[N+]=[N-])CN2[C@@H]1c1ccc(Br)cc1`, the AC50 was 7.94 µM (inconclusive) on Cytochrome P450 2D6 and 3.16 µM (inconclusive) on Cytochrome P450 2C9.
`CCOC(=O)c1ccc(NC(=O)CCc2ccc(C)o2)cc1`: the EC50 in assay [3] and in [4] was > 112 µM (not active) throughout.
`COC(=O)/C=C/CSC1=N/C(=C/c2ccc(-n3cncn3)cc2)C(=O)N1`: at Cytochrome P450 2C9, the AC50 is 11.2 µM (inconclusive).
For the compound `COc1ccc(N2CCN(c3nc4c(c(=O)n(C)c(=O)n4C)n3Cc3ccccc3)CC2)cc1`, the EC50 in [3] is 18 µM (active); in assay [4], > 112 µM (not active).
Consider `NC(=O)c1ccccc1/N=C/c1ccccn1`, for which the IC50 in the assay on H9c2 is 22.4 µM (active).
Regarding `CCC(C(=O)OCC(=O)Nc1ccc(Cl)c(S(=O)(=O)N(C)C)c1)c1ccccc1` (stereo unspecified), in assay [6], the IC50 is reported as 13.3 µM (not active).
For the compound `Cc1ccnc(N2C(=O)C3C4CC(C(Br)C4Br)C3C2=O)c1` (stereo unspecified), the AC50 on Cytochrome P450 3A4 was 25.1 µM (inconclusive); on Cytochrome P450 2C9, 17.8 µM (inconclusive).
With `CCOC(=O)N1CCN(C(=O)CSc2nc3ccccc3c(=O)n2-c2ccccc2)CC1`, the IC50 in the assay on H9c2 was 19.5 µM (active).
On to `CCn1c(SCC(=O)Nc2ccccc2N2CCCCC2)nc2c1c(=O)n(C)c(=O)n2C`, for which the IC50 with H9c2 is > 79 µM (inactive).
Take `O=C(Nc1ccc2ccccc2c1)C(=O)C1C(=O)Nc2ccccc21` (stereo unspecified): the IC50 in [6] is < 0.4 µM (not active).
`CC(=O)Nc1ccc(NC(=O)Cc2ccc(S(=O)(=O)N3CCCCC3)s2)cc1`: the IC50 in assay [6] was 2.64 µM (not active).
With `Cc1ccc(S(=O)(=O)N2CCC(C(=O)NCc3cccnc3)CC2)cc1`, the AC50 on Cytochrome P450 2C19 was 17.8 µM (inconclusive); at Cytochrome P450 2D6, 12.6 µM (inconclusive); on Cytochrome P450 2C9, 6.31 µM (inconclusive).
As to `CNc1nc(NN)nc(Nc2ccccc2)n1`, the IC50 on Nonstructural protein 1 is 15 µM (active).
Take `Cc1nn2c(NCCCN(C)C)c3c(nc2c1-c1ccccc1)CCCC3`: the CC50 in the assay on Vero is > 25 µM (active).
Take `Cc1c(NC(=O)CSC(=S)N2CCCC2)c(=O)n(-c2ccccc2)n1C`: the EC50 was > 112 µM (not active) in [3] and 25.5 µM (active) in assay [4].
Regarding `COc1[nH]nc(C(=O)Nc2cc(F)ccc2C)c1[N+](=O)[O-]`, the 50% inhibitory concentration (IC50) in the assay “cells” is > 50 µM (active).
For the compound `COc1ccc(Oc2ncc3nc(C)c(=O)n(-c4ccccc4)c3n2)cc1`, the AC50 is 39.8 µM (inconclusive) at Cytochrome P450 2C19, 39.8 µM (inconclusive) on Cytochrome P450 2D6 and 10 µM (inconclusive) on Cytochrome P450 2C9.
Consider `COc1cc2c(cc1OC)CN(CC(=O)Nc1ccccc1C#N)CC2`, for which, in the assay with H9c2, the IC50 was 34.2 µM (inactive).
Consider `CCN(CC(=O)Nc1ccc2c(c1)OCCO2)C(=O)c1cccc(S(=O)(=O)N2CCOCC2)c1`, for which the results for the AC50 on Cytochrome P450 2C19, on Cytochrome P450 1A2 and on Cytochrome P450 2C9 were 22.4 µM (inconclusive), 12.6 µM (inconclusive) and 11.2 µM (inconclusive), respectively.
For `COc1cccc(C2CC(C(F)(F)F)n3ncc(C(=O)O)c3N2)c1` (stereo unspecified), the EC50 in assay [3] and in [4] was > 112 µM (not active) each time.
In the case of `COc1ccc(-c2ccc3c(c2)[C@H]2[C@H](CCN2C(=O)NC2CCCC2)[C@H](CO)N3C)cc1`, the AC50 in [2] was 5.37 µM (active).
Turning to `CC(=O)Nc1nc(CCl)cs1`, the IC50 in assay [6] is on record as > 50 µM (not active).
In the case of `O=C1c2ccccc2NC(c2ccc([N+](=O)[O-])cc2)N1O` (stereo unspecified), the IC50 in the assay with H9c2 is 10.4 µM (active).
On to `O=C(OCc1ccc([N+](=O)[O-])cc1)c1ccc2ccccc2n1`, for which the IC50 in the assay “cells” is 18 µM (active).
On to `C/C=C1\COC(C(=O)NCCN2CCCC2)(C(F)(F)F)C=C1C=C1CCCCC1` (stereo unspecified), for which the IC50 in assay [1] is > 20 µM (inactive).
Take `COc1ccc(-c2nn3c(-c4ccccc4)nnc3s2)cc1OC`: the IC50 with H9c2 was > 79 µM (inactive).
